These results are taken from BindingDB's records for PubMed 2419545 (National Institutes of Health, 1986).

The target of assay [1] is Substance P (Cavia porcellus, UniProt P67932).
In assay [2] the target is T1, Protachykinin-1 (Mus musculus, UniProt P41539).
T1 sequence (P41539 whole entry): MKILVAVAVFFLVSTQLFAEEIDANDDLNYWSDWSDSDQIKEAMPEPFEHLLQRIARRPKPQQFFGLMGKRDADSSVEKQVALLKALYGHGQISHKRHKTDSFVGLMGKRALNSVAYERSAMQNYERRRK

For assay [3], the target named is Eledoisin (Eledone moschata, UniProt P62934).
The target in assay [4] is T2, Protachykinin-1 (Rattus norvegicus, UniProt P06767).
T2 sequence (P06767 whole entry): T1 sequence (P41539 whole entry) with D23G, V77I

For assay [5], the target named is T3, ATP synthase subunit a (Rattus norvegicus, UniProt P05504).
T3 sequence (P05504 whole entry): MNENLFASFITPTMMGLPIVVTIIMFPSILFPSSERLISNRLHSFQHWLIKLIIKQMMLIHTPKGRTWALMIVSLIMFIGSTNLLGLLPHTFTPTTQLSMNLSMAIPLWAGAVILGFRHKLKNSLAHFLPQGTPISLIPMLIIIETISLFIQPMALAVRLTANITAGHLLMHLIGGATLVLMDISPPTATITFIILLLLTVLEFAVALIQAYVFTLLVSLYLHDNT

Assay [6] has as its target T4, Substance-K receptor (Cavia porcellus, UniProt Q64077).
T4 sequence (Q64077 whole entry): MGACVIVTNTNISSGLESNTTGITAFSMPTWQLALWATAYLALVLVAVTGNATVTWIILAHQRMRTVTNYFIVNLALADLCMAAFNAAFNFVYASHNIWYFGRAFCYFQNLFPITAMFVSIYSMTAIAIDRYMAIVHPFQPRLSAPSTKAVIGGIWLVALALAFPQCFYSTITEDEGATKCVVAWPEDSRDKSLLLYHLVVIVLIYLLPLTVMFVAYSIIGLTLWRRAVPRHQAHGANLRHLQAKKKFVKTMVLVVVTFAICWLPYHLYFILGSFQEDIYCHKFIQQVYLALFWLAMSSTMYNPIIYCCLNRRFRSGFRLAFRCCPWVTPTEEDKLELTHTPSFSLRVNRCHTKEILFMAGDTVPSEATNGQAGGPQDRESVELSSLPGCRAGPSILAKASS

The target in assay [7] is Class E basic helix-loop-helix protein 22 (Mus musculus, UniProt Q8C6A8).

Changes are numbered by the printed parent chain. Several values for one entry are separate records, joined by “and”; a condition that tells them apart may be missing. Equal entries are not always repeated. Residues, ends and D or L forms follow the SMILES beside them.

Class E basic helix-loop-helix protein 22, sequence (Q8C6A8 whole entry): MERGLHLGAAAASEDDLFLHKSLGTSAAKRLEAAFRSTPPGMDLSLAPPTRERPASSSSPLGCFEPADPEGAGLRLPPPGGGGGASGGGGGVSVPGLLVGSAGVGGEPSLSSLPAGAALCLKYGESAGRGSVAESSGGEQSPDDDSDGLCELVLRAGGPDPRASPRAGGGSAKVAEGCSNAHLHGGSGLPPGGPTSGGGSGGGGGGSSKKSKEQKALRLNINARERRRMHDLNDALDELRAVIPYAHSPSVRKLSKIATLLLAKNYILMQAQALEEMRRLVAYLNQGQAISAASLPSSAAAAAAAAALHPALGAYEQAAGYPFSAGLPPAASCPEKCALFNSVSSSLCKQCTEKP

As a reminder, the Ki is the dissociation constant of the complex between target and ligand, obtained from inhibition or displacement. A higher Ki goes with lower affinity. As for `CC[C@H](C)[C@H](NC(=O)[C@H](Cc1ccccc1)NC(=O)[C@H](C)NC(=O)[C@H](CC(=O)O)NC(=O)[C@H](CCCCN)NC(=O)[C@H](CO)NC(=O)[C@@H]1CCCN1C(=O)[C@@H]1CCC(=O)N1)C(=O)NCC(=O)N[C@@H](CC(C)C)C(=O)N[C@@H](CCSC)C(N)=O` (HELM PEPTIDE1{[Glp].P.S.K.D.A.F.I.G.L.M.[am]}$$$$V2.0), the Ki in assay [1] is 9 nM; in assay [2], 9 nM and 5 nM; in assay [3] it was 2.2 nM; in assay [4], 16 nM and 9 nM; in assay [5] it was 4.2 nM and 3 nM; in assay [6] it was 15 nM.
As for `CSCC[C@H](NC(=O)[C@H](CC(C)C)NC(=O)CNC(=O)[C@H](Cc1ccccc1)NC(=O)[C@H](Cc1ccccc1)NC(=O)[C@H](CCC(N)=O)NC(=O)[C@H](CCC(N)=O)NC(=O)[C@@H]1CCCN1C(=O)[C@H](CCCCN)NC(=O)[C@@H]1CCCN1C(=O)[C@@H](N)CCCN=C(N)N)C(N)=O` [Arg-Pro-Lys-Pro-Gln-Gln-Phe-Phe-Gly-Leu-Met NH2], the inhibition constant Ki in assay [1] is 0.2 nM; in assay [3], 19 nM; in assay [7] it was 47 nM; in assay [5], 106 nM and 21 nM; in assay [6], 200 nM.
In the case of `CSCC[C@H](NC(=O)[C@H](CC(C)C)NC(=O)CNC(=O)[C@@H](NC(=O)[C@H](Cc1ccccc1)NC(=O)[C@H](Cc1ccccc1)NC(=O)[C@H](CC(=O)O)NC(=O)[C@H](Cc1c[nH]cn1)NC(=O)[C@H](CCSC)NC(=O)[C@@H](N)CC(=O)O)C(C)C)C(N)=O` [NSC_5311312], the inhibition constant Ki was 35 nM in assay [1]; 20 nM and 80 nM in assay [2]; 17 nM in assay [3]; 50 nM and 56 nM in assay [4]; 10 nM in assay [7]; 4.7 nM and 6 nM in assay [5]. In assay [6], this molecule gave a Ki of 200 nM.
On to `CSCC[C@H](NC(=O)[C@H](CC(C)C)NC(=O)CNC(=O)[C@@H](NC(=O)[C@H](Cc1ccccc1)NC(=O)[C@H](CO)NC(=O)[C@H](CC(=O)O)NC(=O)[C@@H](NC(=O)[C@H](CCCCN)NC(=O)[C@@H](N)Cc1cnc[nH]1)[C@@H](C)O)C(C)C)C(N)=O` [Neurokinin alpha], for which the inhibitory constant (Ki) in assay [1] was 8 nM; in assay [2], 1 nM and 4 nM; in assay [3], 10 nM; in assay [4] it was 1.3 nM and 4.6 nM; in assay [7], 0.5 nM; in assay [6], 1.3 nM.
Regarding `CSCC[C@H](NC(=O)[C@H](CC(C)C)NC(=O)CNC(=O)[C@H](Cc1ccc(O)cc1)NC(=O)[C@H](Cc1ccccc1)NC(=O)[C@H](CCCCN)NC(=O)[C@H](CC(N)=O)NC(=O)[C@@H]1CCCN1C(=O)[C@H](CC(=O)O)NC(=O)[C@H](C)NC(=O)[C@@H]1CCC(=O)N1)C(N)=O` [physalaemin] (HELM PEPTIDE1{[Glp].A.D.P.N.K.F.Y.G.L.M.[am]}$$$$V2.0), the inhibitory constant (Ki) in assay [1] is 0.7 nM; in assay [2] it was 175 nM; in assay [3], 14 nM; in assay [7], 17 nM; in assay [5], 23 nM and 30 nM; in assay [6], 340 nM.
On to H-DVPKSDQFVGLM-NH2 [CAS_45749], for which the inhibitory constant (Ki) in assay [1] is 9 nM; in assay [2] it was 7 nM; in assay [3], 2.6 nM; in assay [4], 6 nM and 9 nM; in assay [7] it was 0.5 nM; in assay [5] it was 4.1 nM and 1.9 nM. The Ki in assay [6] worked out at 11 nM.
